Measured values published in patent publication US20260356841A1, “HETEROCYCLIC PYRIDINONE COMPOUNDS AS TRIGGERING RECEPTOR EXPRESSED ON MYELOID CELLS 2 AGONISTS AND METHODS OF USE” (Vigil Neuroscience, Inc., priority 2023, published 2026).

Each compound was assayed against T1, human TREM2 (Homo sapiens, UniProt Q9NZC2) (assay: TREM2 agonist potency by cellular phosphorylation of Spleen Tyrosine Kinase (Syk), AlphaLisa, HEK293T-hTREM2 cells). Settings: not given.
T1 construct: expressed in transfected cells; host or cells: HEK293T (HEK293T-hTREM2 cells)
Type: cell-based
Summary of the method: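 HEK293T cells co-expressing human TREM2 and DAP12, plated 20–24 h before use. Compounds applied 45 min at room temperature in assay buffer, then cells lysed and phospho-Syk quantified by AlphaLisa. Percent activation from a standard curve; EC50 from a four-parameter variable-slope fit.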

T1 sequence (Q9NZC2 19-230): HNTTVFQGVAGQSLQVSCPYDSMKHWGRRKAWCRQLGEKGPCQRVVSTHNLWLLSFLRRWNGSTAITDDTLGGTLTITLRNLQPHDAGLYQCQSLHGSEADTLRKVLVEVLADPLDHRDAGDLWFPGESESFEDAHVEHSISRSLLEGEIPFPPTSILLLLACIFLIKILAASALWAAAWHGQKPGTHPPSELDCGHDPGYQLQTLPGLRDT
T1 sequence (O43914 22-113 partner): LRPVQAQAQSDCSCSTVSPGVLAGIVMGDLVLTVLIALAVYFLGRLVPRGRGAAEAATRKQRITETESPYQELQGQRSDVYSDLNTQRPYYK

For `[2H]C([2H])([2H])n1cc([C@H]2C[C@@H](c3nc(-c4ccc(C(F)(F)F)cc4F)c4nc(OC)c(C)nc4n3)CCO2)ccc1=O` [Example 132, 5-[(2R,4S)-4-[4-[2-fluoro-4-(trifluoromethyl)phenyl]-6-methoxy-7-methyl-pteridin-2-yl]tetrahydropyran-2-yl]-1-(trideuteriomethyl)pyridin-2-one], the EC50 was < 100 nM.

Same assay, conditions: hTREM2 EC50 Data (HEK293 Cells); Syk phosphorylation, AlphaLisa; read-out: hTREM2 EC50

Compared with `[2H]C([2H])([2H])n1cc([C@H]2C[C@@H](c3nc(C4CC45CC5(F)F)c4nc(C)c(C)nc4n3)CCO2)ccc1=O` (stereo partly drawn) [Example 92, 5-((2R,4S)-4-(4-(4,4-difluorospiro[2.2]pentan-1-yl)-6,7-dimethylpteridin-2-yl)tetrahydro-2H-pyran-2-yl)-1-(methyl-d3)pyridin-2(1H)-one], `COc1nc2c(C3CCC(F)(F)CC3)nc([C@H]3CCO[C@@H](c4ccc(=O)n(C)c4)C3)nc2nc1C` [Example 138, 5-[(2R,4S)-4-[4-(4,4-difluorocyclohexyl)-6-methoxy-7-methyl-pteridin-2-yl]tetrahydropyran-2-yl]-1-methyl-pyridin-2-one] is lower in EC50: > 500 nM for the first, < 100 nM for the second.

`Cc1nc2nc([C@H]3CCO[C@@H](c4ccc(=O)n(C5CCC5)c4)C3)nc(C34CC(C(F)(F)F)(C3)C4)c2nc1C` [Example 94, 1-cyclobutyl-5-[(2R,4S)-4-[6,7-dimethyl-4-[3-(trifluoromethyl)-1 bicyclo[1.1.1]pentanyl]pteridin-2-yl]tetrahydropyran-2-yl]pyridin-2-one] and `Cc1nc2nc([C@H]3CCO[C@@H](c4ccc(=O)n(C5COC5)c4)C3)nc(C34CC(C(F)(F)F)(C3)C4)c2nc1C` [Example 107, 5-[(2R,4S)-4-[6,7-dimethyl-4-[3-(trifluoromethyl)-1-bicyclo[1.1.1]pentanyl]pteridin-2-yl]tetrahydropyran-2-yl]-1-(oxetan-3-yl)pyridin-2-one] cannot be ordered by EC50: < 100 nM for the first, < 100 nM for the second.

`Cc1nc2nc([C@H]3CCO[C@@H](c4ccc(=O)n(CC5(C#N)CC5)c4)C3)nc(C34CC(C(F)(F)F)(C3)C4)c2nc1C` [Example 98, 1-[[5-[(2R,4S)-4-[6,7-dimethyl-4-[3-(trifluoromethyl)-1-bicyclo[1.1.1]pentanyl]pteridin-2-yl]tetrahydropyran-2-yl]-2-oxo-1-pyridyl]methyl]cyclopropanecarbonitrile] and `Cc1nc2nc([C@H]3CCO[C@@H](c4ccc(=O)n(CC5(C)CC5)c4)C3)nc(C34CC(C(F)(F)F)(C3)C4)c2nc1C` [Example 100, 5-[(2R,4S)-4-[6,7-dimethyl-4-[3-(trifluoromethyl)-1-bicyclo[1.1.1]pentanyl]pteridin-2-yl]tetrahydropyran-2-yl]-1-[(1-methylcyclopropyl)methyl]pyridin-2-one] cannot be ordered by EC50: < 100 nM for the first, < 100 nM for the second.

`Cc1nc2nc([C@H]3C[C@@H](C)O[C@@H](c4ccc(=O)n(C5CC5)c4)C3)nc(C34CC(C(F)(F)F)(C3)C4)c2nc1C` [Example 102, 1-cyclopropyl-5-[(2R,4S,6R)-4-[6,7-dimethyl-4-[3-(trifluoromethyl)-1-bicyclo[1.1.1]pentanyl]pteridin-2-yl]-6-methyl-tetrahydropyran-2-yl]pyridin-2-one] and `COc1nc2c(C34CC(C(F)(F)F)(C3)C4)nc([C@H]3CCO[C@@H](c4ccc(=O)n(C5CC5)c4)C3)nc2nc1C` [Example 142, 1-cyclopropyl-5-[(2R,4S)-4-[6-methoxy-7-methyl-4-[3-(trifluoromethyl)-1-bicyclo-[1.1.1]pentanyl]pteridin-2-yl]tetrahydropyran-2-yl]pyridin-2-one] cannot be ordered by EC50: < 100 nM for the first, < 100 nM for the second.

`Cc1cc(-n2cc([C@H]3CC(c4nc(C56CC(C(F)(F)F)(C5)C6)c5nc(C)c(C)nc5n4)CCO3)ccc2=O)cs1` (stereo partly drawn) [Example 104, 5-((2R)-4-(6,7-dimethyl-4-(3-(trifluoromethyl)bicyclo-[1.1.1]pentan-1-yl)pteridin-2-yl)tetrahydro-2H-pyran-2-yl)-1-(5-methylthiophen-3-yl)pyridin-2 (1H)-one] and `Cc1cc(-n2cc([C@H]3C[C@@H](c4nc(C56CC(C(F)(F)F)(C5)C6)c5nc(C)c(C)nc5n4)CCO3)ccc2=O)cs1` [Example 105, 5-((2R,4S)-4-(6,7-dimethyl-4-(3-(trifluoromethyl)bicyclo[1.1.1]pentan-1-yl)pteridin-2-yl)tetrahydro-2H-pyran-2-yl)-1-(5-methylthiophen-3-yl)pyridin-2 (1H)-one] cannot be ordered by EC50: < 100 nM for the first, < 100 nM for the second.

`Cc1nc2nc([C@H]3CCO[C@@H](c4ccc(=O)n(-c5cscn5)c4)C3)nc(C34CC(C(F)(F)F)(C3)C4)c2nc1C` [Example 110, 5-((2R,4S)-4-(6,7-dimethyl-4-(3-(trifluoromethyl)bicyclo[1.1.1]pentan-1-yl)pteridin-2-yl)tetrahydro-2H-pyran-2-yl)-1-(thiazol-4-yl)pyridin-2(1H)-one] and `Cc1nc(-n2cc([C@H]3C[C@@H](c4nc(C56CC(C(F)(F)F)(C5)C6)c5nc(C)c(C)nc5n4)CCO3)ccc2=O)cs1` [Example 114, 5-((2R,4S)-4-(6,7-dimethyl-4-(3-(trifluoro-methyl)bicyclo[1.1.1]pentan-1-yl)pteridin-2-yl)tetrahydro-2H-pyran-2-yl)-1-(2-methyl-thiazol-4-yl)pyridin-2(1H)-one] cannot be ordered by EC50: < 100 nM for the first, < 100 nM for the second.

`Cc1nc2nc([C@H]3CCO[C@@H](c4ccc(=O)n(-c5csc(C6CC6)c5)c4)C3)nc(C34CC(C(F)(F)F)(C3)C4)c2nc1C` [Example 112] and `Cc1nc2nc([C@H]3CCO[C@@H](c4ccc(=O)n(-c5cnco5)c4)C3)nc(C34CC(C(F)(F)F)(C3)C4)c2nc1C` [Example 116, 5-((2R,4S)-4-(6,7-dimethyl-4-(3-(trifluoromethyl)-bicyclo-[1.1.1]pentan-1-yl)pteridin-2-yl)tetrahydro-2H-pyran-2-yl)-1-(oxazol-5-yl)pyridin-2(1H)-one] cannot be ordered by EC50: < 100 nM for the first, < 100 nM for the second.

`Cc1nc2nc([C@H]3CCO[C@@H](c4ccc(=O)n(C56CC(C5)C6)c4)C3)nc(C34CC(C(F)(F)F)(C3)C4)c2nc1C` [Example 120, 1-(1-bicyclo[1.1.1]pentanyl)-5-[(2R,4S)-4-[6,7-dimethyl-4-[3-(trifluoromethyl)-1-bicyclo-[1.1.1]pentanyl]pteridin-2-yl]tetrahydropyran-2-yl]pyridin-2-one] and `Cc1nc2nc([C@@H]3CCO[C@H](c4ccc(=O)n(C56CC(C5)C6)c4)C3)nc(C34CC(C(F)(F)F)(C3)C4)c2nc1C` [Example 121, 1-(1-bicyclo[1.1.1]pentanyl)-5-[(2S,4R)-4-[6,7-dimethyl-4-[3-(trifluoromethyl)-1-bicyclo[1.1.1]-pentanyl]pteridin-2-yl]tetrahydropyran-2-yl]pyridine-2-one] cannot be ordered by EC50: < 100 nM for the first, < 100 nM for the second.

Compared with `Cc1cnc2c(C34CC(C(F)(F)F)(C3)C4)nc([C@H]3CCO[C@@H](c4ccc(=O)n(C)c4)C3)nc2n1` [Example 123, 1-methyl-5-((2R,4S)-4-(7-methyl-4-(3-(trifluoromethyl)bicyclo-[1.1.1]pentan-1-yl)pteridin-2-yl)tetrahydro-2H-pyran-2-yl)pyridin-2(1H)-one], `Cc1cnc2c(C34CC(C(F)(F)F)(C3)C4)nc([C@@H]3CCO[C@H](c4ccc(=O)n(C)c4)C3)nc2n1` [Example 124, 1-methyl-5-((2S,4R)-4-(7-methyl-4-(3-(trifluoromethyl)bicyclo[1.1.1]pentan-1-yl)pteridin-2-yl)tetrahydro-2H-pyran-2-yl)pyridin-2(1H)-one] is higher in EC50: < 100 nM for the first, 100 to 500 nM for the second. The first is the more potent here.

First: Cc1nc2nc([C@H]3CCO[C@@H](c4ccc(=O)n(C)c4)C3)nc(-c3ccc(C(F)(F)F)cc3F)c2nc1C(F)F [Example 126, 5-[(2R,4S)-4-[6-(difluoromethyl)-4-[2-fluoro-4-(trifluoromethyl)phenyl]-7-methyl-pteridin-2-yl]tetrahydropyran-2-yl]-1-methyl-pyridin-2-one]
Second: Cc1nc2nc([C@@H]3CCO[C@H](c4ccc(=O)n(C)c4)C3)nc(-c3ccc(C(F)(F)F)cc3F)c2nc1C(F)F [Example 127, 5-[(2S,4R)-4-[6-(difluoromethyl)-4-[2-fluoro-4-(trifluoromethyl)phenyl]-7-methyl-pteridin-2-yl]tetrahydropyran-2-yl]-1-methyl-pyridin-2-one]
The EC50 of the first is higher: 100 to 500 nM for the first, < 100 nM for the second.

`COc1nc2c(-c3ccc(C(F)(F)F)cc3F)nc([C@H]3CCO[C@@H](c4ccc(=O)n(C)c4)C3)nc2nc1C` [Example 129, 1-methyl-5-[(2R,4S)-4-[4-[2-fluoro-4-(trifluoromethyl)phenyl]-6-methoxy-7-methyl-pteridin-2-yl]tetrahydropyran-2-yl]pyridin-2-one] and `COc1nc2c(-c3ccc(C(F)(F)F)cc3F)nc([C@@H]3CCO[C@H](c4ccc(=O)n(C)c4)C3)nc2nc1C` [Example 130, 1-methyl-5-[(2S,4R)-4-[4-[2-fluoro-4-(trifluoromethyl)phenyl]-6-methoxy-7-methyl-pteridin-2-yl]tetrahydropyran-2-yl]pyridin-2-one] cannot be ordered by EC50: < 100 nM for the first, < 100 nM for the second.

`COc1nc2c(-c3ccc(C(F)(F)F)cc3F)nc(C3CCOC(c4ccc(=O)n(C)c4)C3)nc2nc1C` (stereo not drawn) [Example 131] and `COc1nc2c(-c3ccc(C(F)(F)F)cc3F)nc([C@H]3CCO[C@@H](c4ccc(=O)n(C5CC5)c4)C3)nc2nc1C` [Example 134, 1-cyclopropyl-5-[(2R,4S)-4-[4-[2-fluoro-4-(trifluoromethyl)phenyl]-6-methoxy-7-methyl-pteridin-2-yl]tetrahydropyran-2-yl]pyridin-2-one] cannot be ordered by EC50: < 100 nM for the first, < 100 nM for the second.

`COc1nc2c(C3CCCCC3)nc([C@H]3CCO[C@@H](c4ccc(=O)n(C)c4)C3)nc2nc1C` [Example 136, 5-[(2R)-4-(4-cyclohexyl-6-methoxy-7-methyl-pteridin-2-yl)tetrahydropyran-2-yl]-1-methyl-pyridin-2-one] and `COc1nc2c(C34CC(C(F)(F)F)(C3)C4)nc([C@H]3CCO[C@@H](c4ccc(=O)n(C)c4)C3)nc2nc1C` [Example 140, 5-[(2R,4S)-4-[6-methoxy-7-methyl-4-[3-(trifluoromethyl)-1-bicyclo[1.1.1]pentanyl]pteridin-2-yl]tetrahydropyran-2-yl]-1-methyl-pyridin-2-one] cannot be ordered by EC50: < 100 nM for the first, < 100 nM for the second.
